Measured values taken from US20060278218A1, “Non-invasive restrained whole body plethysmography for measurement of airway function in conscious mice” (priority 2005, published 2006).
Where “and” joins values, the source holds several entries; their conditions need not be identical. Identical values can stand only once. Marks after values point to notes of the source that are not given here.

Experiments:
Type in all cases: in vivo, mouse
conscious mice [1] = experiment: Methacholine aerosol challenge in conscious mice, restrained whole body plethysmography (RWBP); details: for sRaw-RWBP ED175: mean; for average sRaw: one C57BL/6 mouse
From the text: The dynamic properties of the plethysmograph were studied by varying pressures in the chamber (John, J., B. Drefeldt, et al. (1994). “Dynamic properties of body plethysmographs and effects on physiological parameters.” J Appl Physiol 77(1): 152-9. (hereinafter John, et al.), incorporated herein by reference). A leak (3.2 sec to 36% peak pressure) was created by a Luer connector mounted in the wall of the box, which was attached to a length of tubing, a stopcock and needle (22 g, 2 cm). The leak resistance was measured to be 5.37 cm H2O/L/sec and inertance 0.029 s^2/mL. A step pressure created by (a) hammering gently the plunger of a syringe loaded to an expected volume (0.02 mL), and (b) balloon burst both peaked between 19-21 msec, with a thermal time constant (described by a single compartment) of 0.95 sec. Amplitude was examined as a function of input frequency using digitally controlled square and sinusoidal flows delivered with a piston-driven mouse ventilator (flexiVent, Scireq Corp, Montreal, Canada). Box pressure amplitude remained within 3% of the delivered volume (0.1 mL) from 1-10 Hz, and within 0.075% between 2 and 5 Hz, the range most relevant to breathing in conscious mice. Therefore the conditions were adiabatic across these frequencies. Time shifts between flow, delivered via the pneumotachograph within the box, and peak box pressure averaged less than 3 msec (range 1-6 msec) from 0.5-20 Hz generated using a broadband input generator (flexiVent, Scireq Corp). Pressure in the plethysmographic chamber was sampled differential pressure transducer 20 (TRD 5700, Buxco Electronics, Wilmington, N.C.) referenced to the atmospheric reference chamber 18 The pneumotachograph 52 (8431 Series, Hans Rudolph, Kansas City, Mo.) heated to 38-39° C. measured flow and flow-derived parameters. Data was sampled at 2500 Hz per channel using commercial hardware (Max1420 Buxco Electronics, PCI 6024E, National Instruments) and software (Biosystem XA version 2.9.4, Buxco Electronics, Inc). The pneumotachograph was calibrated by integration of the flow, injected as a known volume (0.5 mL). Box volume was calibrated by rapid injection of a known volume (0.1 mL) into the chamber between each mouse, and checked repeatedly using injections of varying volumes and quasi-sinusoidal inputs. Bias flow (0.5 L/min) was employed between recordings, and the box vented fully between methacholine challenges.
FIGS. 9A-9D are box volume-flow plots for the experiments performed using an RWBP according to the invention. Primary waveforms (box volume, flow) are reviewed and period of peak responses based on EF50 are identified. These occurred regularly between 1.5-2.5 minutes after exposure to methacholine. FIGS. 9A-9D have a stripchart for pneumotachograph flow and plethysmographic volume. Below the stripcharts are corresponding X-Y plots of flow (Y-axis) and box volume shift (X-axis). A slope (θ) of the box volume-flow plot was measured using a protractor (accurate to 0.5 degrees) on the straightest possible segment between −1 to 1 mL/sec. Angles are measured at the transition from expiration to inspiration to minimize the contribution of heating and humidification to the box volume signal (see Agrawal K P). Gains were set to produce angles (tangents) between 40 and 75 degrees. Breaths with evidence of laryngeal braking are avoided. Specific airway resistance (sRaw) is computed from the plots as follows: sRaw=(1/tan θ)*(Patm−PH2O)*Cf*(Vbox−bwt mouse)/Vbox, Equation 1: where Patm is atmospheric pressure, PH2O is water vapor pressure, Cf is a scaling factor for X and Y axes, Vbox is volume of the outer chamber, and bwt mouse is the weight of the mouse in units of grams.
Challenges were conducted at the same time of day (morning or afternoon) for each mouse. Ambient temperatures in the laboratory ranged from 21-23° C. and humidity ranged from 25-45%. Baseline recordings were obtained after 2 min acclimation to the chamber. […]

[2] = system: anesthetized, tracheotomized mice; experiment: Methacholine challenge in anesthetized mice using forced oscillation technique (FOT); details: for Raw ED175: provocative concentration increasing Raw-FOT to 175% baseline, mean
Protocol: The methods for FOT have been previously described in Tomioka, S., J. H. Bates, et al. (2002). “Airway and tissue mechanics in a murine model of asthma: alveolar capsule vs. forced oscillations.” J Appl Physiol 93(1): 263-70. (hereinafter Tomioka, et al.), incorporated herein by reference. Mice were anesthetized with ketamine (50 mg/kg) and xylazine (5 mg/kg) (Butler Co, Dublin, Ohio) intra-peritoneally, and a tracheostomy performed with a 19 g cannula (Becton Dickinson and Company Franklin Lakes, N.Y.). Mice were paralyzed with pancuronium (1 mg/ml, Baxter Healthcare Corp. Irvine, Calif.). Supplemental xylazine and ketamine (½ doses) were provided every ½ hour. Ventilation was set at frequency of 200 BPM, VT 0.3 ml, positive end-expiratory pressure (PEEP) 3.0 cm H20, and oxygen was supplemented throughout. Repeated measurements were performed with a commercial data acquisition system for input impedance between 1-20 Hz (Quick Prime 3 analyzer, FlexiVent System, SCIREQ Corp, Montreal, Quebec). A constant phase model (Gomes, R. F., X. Shen, et al. (2000). “Comparative respiratory system mechanics in rodents.” J Appl Physiol 89(3): 908-16 (hereinafter Gomes, et al.)., incorporated herein by reference) was employed to obtain airway resistance Raw, tissue resistance coefficient Gti, and tissue elastance coefficient Hti.
Aerosols were delivered directly into the tracheal cannula during lung inflation during mechanical ventilation (flexiVent, Scireq Corp, Montreal, Quebec). Ten second nebulization periods were used, followed immediately by a series (8-15) of measurements. Prior to each measurement of lung mechanics, the lung was inflated to total lung capacity (TLC) (30 cm H2O airway pressure). Forced oscillations during apnea (3 seconds in duration) were applied every 17 seconds for 5 minutes. Dosage ranges were pre-determined in pilot studies to evoke between 10 and >75% increase in airway resistance (Raw). Methacholine in C57 mice was delivered at 0 (saline), 4, 8, and 16 mg/mL, and in AJ we used 0, 2, 4, and 8 mg/mL. The concentration of methacholine that provoked an increase in Raw-FOT to 175% baseline (ED 175) was determined by log-linear interpolation as described above.

conscious mice [3] = experiment: Methacholine aerosol challenge in conscious mice, double chamber plethysmography (DCP); details: BALBc (pre-OVA) mice, n=8; provocative concentration increasing sRaw to 175% post-saline value; mean
Protocol: The double chamber plethysmograph was purchased from a commercial source (PLY3351, Buxco Electronics Inc, Wilmington, N.C.). The techniques for measurement with this technique have been described previously (DeLorme, et al. and Flandre, et al.). The flow for each chamber (nasal and thoracic) of the DCP was calibrated separately by rapid injection of a known volume (0.5 mL) into the chamber; volume was matched by the integration of flow. The accuracy of calibration was checked before each test. The phase lag between the chambers was negligible (<0.01 msec up to 10 Hz). For DCP, mice were loaded into the rear of the thoracic chamber and pushed forward until the head protruded through a hole in a latex neck seal provided with the equipment. […] Computation of sRaw measured with DCP (hereinafter sRaw-DCP) followed protocols established by Pennock, et al. and later applied to mice by Flandre, et al, whereby the time lag (dT) between the thoracic and nasal flow at zero crossing (during transition between inspiration and expiration) was utilized as follows: sRaw−DCP=(Ti+Te)/(2π)×(Patm−47)×1.36 2×π×dT/(Ti+Te), Equation 2: where Ti and Te equal inspiratory and expiratory time (sec) and Patm atmospheric pressure (cm H2O). The peak dT was identified and 10 sequential breaths free from movement artifacts were measured for that period. […]

SMILES: CC(=O)OC(C)C[N+](C)(C)C (centres unmarked) [methacholine]
- sRaw-RWBP ED175 (conscious mice [1]; AJ mice, n=18, provocative concentration increasing sRaw to 175% post-saline value): 4.49^a,b mg/mL
- sRaw-RWBP ED175 (conscious mice [1]; BALBc (no OVA) mice, n=18, provocative concentration increasing sRaw to 175% post-saline value): 10.9^a mg/mL
- sRaw-RWBP ED175 (conscious mice [1]; BALBc (post-OVA) mice, n=8, 48 hrs following allergen challenge in sensitized group): 5.0 mg/mL and 5.0^a,c mg/mL
- sRaw-RWBP ED175 (conscious mice [1]; BALBc (pre-OVA) mice, n=8, prior to sensitization and aerosol exposure to ovalbumin): 9.2 mg/mL and 9.2^ mg/mL
- sRaw-RWBP ED175 (conscious mice [1]; C57 mice, n=18, provocative concentration increasing sRaw to 175% post-saline value): 40.5^b mg/mL
- change in tidal volume (conscious mice [1]; conscious C57, AJ and BALBc mice, any strain (FIG. 10C)): no change
- change in sRaw-RWBP (conscious mice [1]; conscious C57, AJ and BALBc mice, dose response (FIG. 10A)): significant dose-dependent increase
- change in respiratory frequency (conscious mice [1]; conscious C57, AJ and BALBc mice, dose response (FIG. 10B)): significant decrease
- average sRaw (conscious mice [1]; methacholine aerosol dose 10 mg/mL (FIG. 9B)): 0.75 cm·s
- average sRaw (conscious mice [1]; methacholine aerosol dose 50 mg/mL (FIG. 9C)): 0.86 cm·s
- average sRaw (conscious mice [1]; methacholine aerosol dose 100 mg/mL (FIG. 9D)): 1.61 cm·s
- period of peak responses based on EF50 after exposure (conscious mice [1]; time after exposure to methacholine): 1.5 to 2.5 min
- Raw ED175 ([2]; AJ mice, n=18): 2.3^a mg/mL
- Raw ED175 ([2]; BALBc (pre-OVA) mice): 9.48 mg/mL
- Raw ED175 ([2]; C57 mice, n=18): 8.3 mg/mL
- change in Raw ([2]; anesthetized, tracheotomized C57, AJ and BALBc mice, all 3 strains (FIG. 11)): dose-dependent increase
- sRaw-DCP ED175 (conscious mice [3]): 7.1^a mg/mL
